Assay results from US11529317B2, “Method of preparing silica nanocapsules and silica nanocapsules” (Agency for Science, Technology and Research, priority 2017, dated 2022).

Assay: Timed release of glycerol in aqueous media, standard enzymatic assay
Type: physicochemical
Conditions: control
Procedure: In this example, timed release studies were conducted on the glycerol loaded silica nanocapsules in accordance with various embodiments disclosed herein. Firstly, the synthesized silica nano lens particles were loaded with glycerol. Then, they were suspended in aqueous media and compared with controls.
The percentage of glycerol released from the lens-shaped particles over a period of 80 minutes is estimated using standard enzymatic assay and the results are shown in FIG. 12. […] On the other hand, encapsulated glycerol is released gradually from the lens-shaped particles over a period of approximately two hours.

dissolution of glycerol in water: instantly dissolves
Compound: OCC(O)CO [unencapsulated glycerol, glycerol]
